According to US20070129436A1, “Agent for Suppressing Body Fat Accumulation” (YAMAHA HATSUDOKI KABUSHIKI KAISHA, priority 2005, published 2007):

Key:
[1] = tested on: obese model mice fed with a high-fat diet; test: Effect of astaxanthin monoester on obese model mice fed with a high-fat diet; assay type: in vivo, male C57BL/6J strain mice
Protocol: Astaxanthin was administered to obese model mice fed with a high-fat diet, and the change in body weight, the amount of subcutaneous fat (in the inguinal region and the back), the amount of visceral fat (around the reproductive organs and around the kidney), and the liver weight were examined in the following manner.
Four week old male C57BL/6J strain mice (SPF) purchased from CHARLES RIVER LABORATORIES JAPAN, INC. were used. The mice were preliminarily fed for 8 days and used for the test after they reached the age of 5 weeks. The mice were divided into three groups of 8 each, that is, a normal diet group, a high-fat diet group, and a high-fat diet+astaxanthin (AX) group, so that the average body weight was equal among the groups.
During the preliminary feeding period, the mice were given an ordinary powder diet (MF, Oriental Yeast Co., Ltd.), and during the test period of 16 weeks, the mice were given the ordinary powder diet or a high-fat diet having the composition shown in Table 1 below. As to drinking water, the mice were allowed to drink freely sterile distilled water from a water supply bottle.
The astaxanthin monoester prepared in Preparation Example 1 was dissolved in an olive oil (Wako Pure Chemical Industries, Ltd.) to prepare a solution containing astaxanthin monoester at a concentration of 60 mg/mL. This solution was administered to the high-fat diet+AX group and the olive oil to the other two groups in a volume of 0.05 mL/10 g body weight every day for 16 weeks from the start of the test (at the age of 5 weeks) to the age of 21 weeks, using a probe for oral administration in the mice.
During the test period, the body weight was measured once a week using a scale. At the end of the test, the body weight was measured, and thereafter, the mice were fasted overnight and sacrificed by collecting blood from the heart. Then, the liver, the adipose tissue in the inguinal region, the adipose tissue around the reproductive organs, the adipose tissue around the kidney, and the adipose tissue in the back were collected and the weights thereof were measured.
The different types of data obtained were expressed as average values±standard errors for each group. In order to test for statistically significant differences between the high-fat diet group and the high-fat diet+AX group or the normal diet group, a multiple comparison test (ANOVA) was performed using an analysis software (Stat View, Abacus Inc., USA), and a comparison between the groups was performed using Fisher's PLSD multiple comparison test. Differences were considered statistically significant when p<0.05.

[2] = tested on: Human umbilical vein endothelial cells (HUVECs); test: Measurement of 50% lethal concentration for HUVEC (alamarBlue); assay type: cell-based
Protocol: Human umbilical vein endothelial cells (HUVECs) (ATCC CRL-1730) were obtained from American Type Culture Collection and precultivated in an Endothelial Cell Growth Medium (CELL APPLICATIONS, USA) containing 10% bovine fetal serum supplemented with 1% Antibiotic-Antimycotic (GIBCO BRL, USA) under a 5% CO2 atmosphere at 37° C.
A Matrigel matrix (BD Biosciences, USA) was melted and kept at 4° C. on ice, and then, 50 μL of the matrix were transferred to each well of a 96-well tissue culture plate. The plate was incubated at 37° C. for at least one hour to solidify the matrix solution.
On the other hand, the astaxanthin monoester obtained in Preparation Example 1 was dissolved in dimethylsulfoxide (DMSO), and then diluted with distilled water to prepare stock test solutions in which the astaxanthin monoester was contained in 40 (v/v) % DMSO at 25000, 2500, 250, 25, and 2.5 μM, respectively. […]
After the incubation, 20 μL of a 90% alamarBlue reagent were added to individual wells, and incubated for an additional 6 hours. Then, the fluorescence intensity of each well was measured at an excitation wavelength of 530 nm and an emission wavelength of 590 nm using a Spectrafluor Plus plate reader to count the number of living cells. […] The 50% lethal concentration was calculated as the concentration at which the number of living cells was 50% of the number of cells at the start of the experiment.

[3] = high-fat diet+AX vs high-fat diet group, oral daily for 16 weeks, end of test, FIG. 2
[4] = high-fat diet+AX vs high-fat diet group, oral daily for 16 weeks, end of test, FIG. 3

Substance: astaxanthin monoester
- increase in body weight ([1]; high-fat diet+AX group vs high-fat diet group, oral, 60 mg/mL in olive oil, 0.05 mL/10 g body weight every day for 16 weeks, FIG. 1): tended to be distinctly suppressed
- amount of fat accumulation in subcutaneous fat (weight) [1, 3]: significantly suppressed
- amount of fat accumulation in visceral fat (weight) [1, 3]: significantly suppressed
- proportion of the liver weight to body weight [1, 4]: approached that in the case of the normal diet
- proportions of all of the adipose tissues to body weight (increase) [1, 4]: significantly suppressed
- LC50 ([2]; 72 hours incubation, 250 μM = maximum concentration dissolved in DMSO): ≥ 250 µM
- toxicity ([2]; conclusion from the LC50 for HUVECs): low
